Results taken from patent US11135237B2, “Lipophosphonoxins of second generation, and their use” (USTAV ORGANICKE CHEMIE A BIOCHEMIE AV CR, V.V.I., priority 2016, dated 2021).
In brackets after ≈: the same amount, converted by molar mass.

Key:
Assay type in all cases: cell-based
Bacillus subtilis = experiment: MIC, microdilution method, reference strains; conditions: read after 24/48 hours of incubation at 37° C.
Protocol: (§1) Antibacterial activity was measured using a standard microdilution method, showing the minimum inhibitory concentration (MIC) of the test sample which results in inhibition of bacterial growth. Disposable microtiter plates were used for the tests. Samples are dissolved in the brain-heart infusion broth (HiMedia Laboraties Pvt. Ltd., Czech Republic), and Mueller Hinton broth (HiMedia Laboraties, see above) at a final concentration ranging from 200 μg/ml to 1.5625 μg/ml. Plates were inoculated with a standard amount of test bacteria-inoculum density in the hole corresponds to 10^5-6 CFU/ml (colony forming units/ml). MIC values are read after 24/48 hours of incubation at 37° C. as the minimum inhibitory concentration of the test substance at which the growth of bacteria is inhibited. Minimal bactericidal concentration (MBC) is defined as the minimum concentration of the sample needed to achieve irreversible inhibition, therefore killing the bacteria after a defined time of incubation. The MBC was determined by inoculation method. 10 μl from the wells in a microplate with a defined concentration of test substance is taken with an applicator, and inoculated onto the surface of blood agar (Trios, Czech Republic) and Sabouraud agar (Trios, CR). The MBC was determined as the lowest concentration that inhibited visible growth of the bacteria used. Standard reference bacterial strains (Escherichia coli CCM 3954, Pseudomonas aeruginosa CCM 3955, Enterococcus faecalis CCM 4224, Staphylococcus aureus CCM 4223) were obtained from the Czech Collection of Microorganisms (CCM) at […] University in Brno. Streptococcus agalactiae, Bacillus subtilis were obtained from the University Hospital Olomouc. The tested microorganisms were maintained in cryobanks (ITEST plus, Czech Republic) at -80° C.

[1] = system: Enterococcus faecalis CCM 4224; experiment: MIC, microdilution method, reference strains; conditions: CCM4224, read after 24/48 hours of incubation at 37° C.
Protocol: as §1

[2] = system: Escherichia coli CCM 3954; experiment: MIC, microdilution method, reference strains; conditions: CCM3954, read after 24/48 hours of incubation at 37° C.
Protocol: as §1

[3] = system: Pseudomonas aeruginosa CCM 3955; experiment: MIC, microdilution method, reference strains; conditions: CCM3955, read after 24/48 hours of incubation at 37° C.
Protocol: as §1

[4] = system: Staphylococcus aureus CCM 4223; experiment: MIC, microdilution method, reference strains; conditions: CCM4223, read after 24/48 hours of incubation at 37° C.
Protocol: as §1

Streptococcus agalactiae = experiment: MIC, microdilution method, reference strains; conditions: read after 24/48 hours of incubation at 37° C.
Protocol: as §1

E. coli 16702 = experiment: MIC, microdilution method, resistant strains; conditions: Escherichia coli, resistant strain, clinical isolate
Protocol: (§2) Antibacterial activity was measured using a standard microdilution method, showing the minimum inhibitory concentration (MIC) of the test sample which results in inhibition of bacterial growth. Disposable microtiter plates were used for the tests. Samples are dissolved in the brain-heart infusion broth (HiMedia Laboraties Pvt. Ltd., Czech Republic), and Mueller Hinton broth (HiMedia Laboraties, see above) at a final concentration ranging from 200 μg/ml to 1.5625 μg/ml. Plates were inoculated with a standard amount of test bacteria—inoculum density in the hole corresponds to 10^5-6 CFU/ml (colony forming units/ml). MIC values are read after 24/48 hours of incubation at 37° C. as the minimum inhibitory concentration of the test substance at which the growth of bacteria is inhibited. Minimal bactericidal concentration (MBC) is defined as the minimum concentration of the sample needed to achieve irreversible inhibition, therefore killing the bacteria after a defined time of incubation. The MBC was determined by inoculation method. 10 μl from the wells in a microplate with a defined concentration of test substance is taken with an applicator, and inoculated onto the surface of blood agar (Trios, Czech Republic) and Sabouraud agar (Trios, CR). The MBC was determined as the lowest concentration that inhibited visible growth of the bacteria used.

E. faecium VanA 419ana = experiment: MIC, microdilution method, resistant strains; conditions: Enterococcus faecium, VANA419ANA; vancomycin-resistant strain, clinical isolate
Protocol: as §2

P. aeruginosa 16575 = experiment: MIC, microdilution method, resistant strains; conditions: Pseudomonas aeruginosa, resistant strain, clinical isolate
Protocol: as §2

S. aureus MRSA 4591 = experiment: MIC, microdilution method, resistant strains; conditions: Staphylococcus aureus, methicillin-resistant strain, clinical isolate
Protocol: as §2

S. epidermidis 8700B = experiment: MIC, microdilution method, resistant strains; conditions: Staphylococcus epidermidis, methicilin-resistant strain, clinical isolate
Protocol: as §2

S. haemolyticus 16568 = experiment: MIC, microdilution method, resistant strains; conditions: Staphylococcus haemolyticus, fluoroquinolone-resistant strain, clinical isolate
Protocol: as §2

[5] = system: Acinetobacter baumanii A3-08; experiment: MIC, microdilution method; conditions: Acinetobacter baumannii, A308; read after 24/48 hours of incubation at 37° C.
Protocol: as §2

[6] = system: Burkholderia multivorans ATCC BAA-247; experiment: MIC, microdilution method; conditions: ATCCBAA247, read after 24/48 hours of incubation at 37° C.
Protocol: as §2

[7] = system: Salmonella Enteritidis S2-25; experiment: MIC, microdilution method; conditions: Salmonella enterica, read after 24/48 hours of incubation at 37° C.
Protocol: as §2

[8] = system: Stenotrophomonas matophilia S2-23; experiment: MIC, microdilution method; conditions: S223, read after 24/48 hours of incubation at 37° C.
Protocol: as §2

Structure (SMILES)	MIC (Bacillus subtilis) [µg/mL]	MIC [1] [µg/mL]	MIC [2] [µg/mL]	MIC [3] [µg/mL]	MIC [4] [µg/mL]	MIC (Streptococcus agalactiae) [µg/mL]	MIC (E. coli 16702) [µg/mL]	MIC (E. faecium VanA 419ana) [µg/mL]	MIC (P. aeruginosa 16575) [µg/mL]	MIC (S. aureus MRSA 4591) [µg/mL]	MIC (S. epidermidis 8700B) [µg/mL]	MIC [5] [µg/mL]	MIC [6] [µg/mL]	MIC [7] [µg/mL]	MIC [8] [µg/mL]	MIC (S. haemolyticus 16568) [µg/mL]
CCCCCCCCCCCCCCCOP(=O)(CCN(CCN)CCN)OC[C@H]1O[C@@H](n2ccc(=O)[nH]c2=O)C(O)C1O (stereo partly drawn) [Example 6, Pentadecyl-uridine-5′-yl-2-N-bis(3-aminoethyl)-2-aminoethyl phosphonate]	0.78 (≈ 1.2 µM)	12.5 (≈ 19.3 µM)	1.56 (≈ 2.41 µM)	1.56 (≈ 2.41 µM)	6.25 (≈ 9.65 µM)	3.12 (≈ 4.82 µM)	1.56 (≈ 2.41 µM)	100 (≈ 154 µM)	1.56 (≈ 2.41 µM)	6.25 (≈ 9.65 µM)	1.56 (≈ 2.41 µM)	–	–	–	–	1.56 (≈ 2.41 µM)
CCCCCCCCCCCCCCCOP(=O)(CCN(CCCNC(=N)N)CCCNC(=N)N)OC[C@H]1O[C@@H](n2ccc(=O)[nH]c2=O)C(O)C1O (stereo partly drawn) [Example 8]	0.39 (≈ 0.513 µM)	25 (≈ 32.9 µM)	0.78 (≈ 1.03 µM)	0.78 (≈ 1.03 µM)	3.12 (≈ 4.11 µM)	1.56 (≈ 2.05 µM)	0.78 (≈ 1.03 µM)	50 (≈ 65.8 µM)	1.56 (≈ 2.05 µM)	3.12 (≈ 4.11 µM)	1.56 (≈ 2.05 µM)	6.25 (≈ 8.22 µM)	100 (≈ 132 µM)	1.56 (≈ 2.05 µM)	3.12 (≈ 4.11 µM)	1.56 (≈ 2.05 µM)

Further lines, with some results ahead:

MIC (Bacillus subtilis) [µg/mL]	MIC [1] [µg/mL]	MIC [2] [µg/mL]	MIC [3] [µg/mL]	MIC [4] [µg/mL]	MIC (Streptococcus agalactiae) [µg/mL]	MIC (E. coli 16702) [µg/mL]	MIC (E. faecium VanA 419ana) [µg/mL]	MIC (P. aeruginosa 16575) [µg/mL]	MIC (S. aureus MRSA 4591) [µg/mL]	MIC (S. epidermidis 8700B) [µg/mL]	MIC [5] [µg/mL]	MIC [6] [µg/mL]	MIC [7] [µg/mL]	MIC [8] [µg/mL]	Structure (SMILES)	MIC (S. haemolyticus 16568) [µg/mL]
6.25 (≈ 9.86 µM)	100 (≈ 158 µM)	12.5 (≈ 19.7 µM)	3.12 (≈ 4.93 µM)	25 (≈ 39.4 µM)	6.25 (≈ 9.86 µM)	6.25 (≈ 9.86 µM)	100 (≈ 158 µM)	6.25 (≈ 9.86 µM)	12.5 (≈ 19.7 µM)	3.12 (≈ 4.93 µM)	25 (≈ 39.4 µM)	12.5 (≈ 19.7 µM)	12.5 (≈ 19.7 µM)	6.25 (≈ 9.86 µM)	CCCCCCCCCCCCCCOP(=O)(CCN(CCN)CCN)OC[C@H]1O[C@@H](n2ccc(=O)[nH]c2=O)C(O)C1O (stereo partly drawn) [Example 7, Tetradecyl-uridine-5′-yl-2-N-bis(3-aminoethyl)-2-aminoethyl phosphonate]	3.12 (≈ 4.93 µM)
1.56 (≈ 2.09 µM)	12.5 (≈ 16.8 µM)	3.12 (≈ 4.19 µM)	3.12 (≈ 4.19 µM)	6.25 (≈ 8.38 µM)	3.12 (≈ 4.19 µM)	3.12 (≈ 4.19 µM)	50 (≈ 67 µM)	6.25 (≈ 8.38 µM)	6.25 (≈ 8.38 µM)	3.12 (≈ 4.19 µM)	12.5 (≈ 16.8 µM)	100 (≈ 134 µM)	3.12 (≈ 4.19 µM)	12.5 (≈ 16.8 µM)	CCCCCCCCCCCCCCOP(=O)(CCN(CCCNC(=N)N)CCCNC(=N)N)OC[C@H]1O[C@@H](n2ccc(=O)[nH]c2=O)C(O)C1O (stereo partly drawn) [Example 9]	3.12 (≈ 4.19 µM)
1.56 (≈ 2.53 µM)	6.25 (≈ 10.1 µM)	3.12 (≈ 5.07 µM)	3.12 (≈ 5.07 µM)	12.5 (≈ 20.3 µM)	3.12 (≈ 5.07 µM)	3.12 (≈ 5.07 µM)	50 (≈ 81.1 µM)	3.12 (≈ 5.07 µM)	25 (≈ 40.5 µM)	3.12 (≈ 5.07 µM)	–	–	–	–	CCCCCCCCCCCCCCOP(=O)(CCN1CCC(N)C1)OC[C@H]1O[C@@H](n2ccc(=O)[nH]c2=O)C(O)C1O (stereo partly drawn) [Example 10, Tetradecyl-uridine-5′-yl-(3-aminopyrrolidin-1-N-yl) ethyl phosphonate]	6.25 (≈ 10.1 µM)
